From patent publication US9073905B2, “Rock inhibitors” (Amakem NV, priority 2011, dated 2015)
pEC50, pIC50: −log10 of the molar value. Entries after “also recorded” stand apart in the source; their conditions may differ.

Key:
ROCK2 = ROCK2 (Homo sapiens, UniProt O75116); assay: Kinase inhibition (ROCKI & ROCKII), radiometric 33P-ATP biochemical assay
Protocol: On-target activity against ROCK was measured in a biochemical assay, using the following reagents: Base Reaction buffer; 20 mM Hepes (pH 7.5), 10 mM MgCl2, 1 mM EGTA, 0.02% Brij35, 0.02 mg/ml BSA, 0.1 mM Na3VO4, 2 mM DTT, 1% DMSO. Required cofactors are added individually to each kinase reaction. The reaction procedure first involved the preparation of a peptide substrate in a freshly prepared reaction buffer. Required cofactors were then added to the substrate solution. ROCK (1 nM final concentration) was then delivered to the substrate solution. After gentle mix, DMSO solutions of the test compounds were added to the enzyme. Substrate mix ^33P-ATP (specific activity 0.01 μCi/μl final) was then delivered into the reaction mixture to initiate the reaction. The kinase reaction was incubated for 120 min. at room temperature. Reactions were then spotted onto P81 ion exchange paper (Whatman #3698-915). Filters were washed extensively in 0.1% Phosphoric acid. A radiometric count was then performed and IC50 values were subsequently determined.
The IC50 values obtained (in accordance with the protocol set forth above) are represented as follows: “+++” means IC50 below 0.1 μM, “++” means IC50 between 0.1 μM and 1 μM; “+” means IC50 between 1 and 10 μM and “ND” means “not determined yet”.

[1] = Stability towards drug metabolizing enzymes in lung S9; type: in vitro ADME, human; settings: comparison table; for half-life at 1 μM: human, lung S9 (from smokers), read-out: t½ lung S9
Protocol: A 1 μM solution of the ROCK inhibitors is incubated with a reaction mixture containing lung S9 (from smokers) as well as the cofactors NADPH, UDPGA, PAPS and GSH. Samples are collected at 0, 15, 30 and 60 minutes post incubation. Negative control samples incubated with ROCK inhibitors and S9 fraction in the absence of cofactors are run in parallel. By using LC-MS/MS analysis, the percent of ROCK compounds remaining at each time point, the metabolic half-life of the ROCK compounds (expressed in minutes) and the metabolic half-life of the control compounds are determined.

[2] = Stability assay in rabbit aqueous humor; type: in vitro ADME; settings: for half-life at 1 μM: rabbit, read-out: t½ AH
Protocol: Compounds are incubated at a concentration of 1 μM in rabbit aqueous humor (AH). Samples are taken at fixed time points and the remnant of compound is determined by LC-MS/MS after protein precipitation. Half life is expressed in minutes.

[3] = Stability in plasma, species not stated; type: in vitro ADME; settings: for half-life at 1 μM: read-out: t½ Plasma
Protocol: (§1) Compounds are incubated at a concentration of 1 μM in rat (mice or rabbit) or human plasma. Samples are taken at fixed time points and the remnant of compound is determined by LC-MS/MS after protein precipitation. Half life is expressed in minutes.

[4] = tested on: MLC-T18/S19 phosphorylation; assay: Myosin light chain phosphorylation assay (ELISA) in A7r5 cells; type: cell-based, Rat; settings: for pEC50: MLC-T18/S19 phosphorylation, A7r5 cells, serum-free medium; for functional activity in the MLC phosphorylation assay (in words): FIG. 1
Protocol: Rat smooth muscle cell line A7r5 is used. The endogenous expression of ROCK esults in a constitutive phosphorylation of the regulatory myosin light chain at T18/S19. A7r5 cells were plated in DMEM supplemented with 10% FCS in multiwall cell culture plates. After serum starvation overnight, cells were incubated with compounds in serum-free medium.
Quantification of MLC-T18/S19 phosphorylation is assesses in 96 well-plates via ELISA using a phspho-MLC-T18/S19 specific antibody and a secondary detection antibody. Raw data were converted into percent substrate phosphorylation relative to high controls, which were set to 100%.
EC50 values were determined using GraphPad Prism 5.01 software using a nonlinear regression curve fit with variable hill slope.
The EC50 values obtained (in accordance with the protocols set forth above) are represented as follows: “+++” means EC50 below 0.3 μM, “++” means EC50 between 0.3 μM and 1 μM; “+” means EC50 between 1 and 10 μM and “−” means EC50>10 μM.

[5] = Stability assay in human plasma; type: in vitro ADME; settings: 1 μM compound, LC-MS/MS, read-out: t½ human plasma
Protocol: as §1

[6] = aqueous humor, comparison table, aqueous humor
[7] = comparison table, plasma species not given
[8] = ROCK 1 nM, 120 min at room temperature
[9] = aqueous humor, 1 μM in rabbit aqueous humor

ROCK2, sequence (O75116 whole entry, species assumed): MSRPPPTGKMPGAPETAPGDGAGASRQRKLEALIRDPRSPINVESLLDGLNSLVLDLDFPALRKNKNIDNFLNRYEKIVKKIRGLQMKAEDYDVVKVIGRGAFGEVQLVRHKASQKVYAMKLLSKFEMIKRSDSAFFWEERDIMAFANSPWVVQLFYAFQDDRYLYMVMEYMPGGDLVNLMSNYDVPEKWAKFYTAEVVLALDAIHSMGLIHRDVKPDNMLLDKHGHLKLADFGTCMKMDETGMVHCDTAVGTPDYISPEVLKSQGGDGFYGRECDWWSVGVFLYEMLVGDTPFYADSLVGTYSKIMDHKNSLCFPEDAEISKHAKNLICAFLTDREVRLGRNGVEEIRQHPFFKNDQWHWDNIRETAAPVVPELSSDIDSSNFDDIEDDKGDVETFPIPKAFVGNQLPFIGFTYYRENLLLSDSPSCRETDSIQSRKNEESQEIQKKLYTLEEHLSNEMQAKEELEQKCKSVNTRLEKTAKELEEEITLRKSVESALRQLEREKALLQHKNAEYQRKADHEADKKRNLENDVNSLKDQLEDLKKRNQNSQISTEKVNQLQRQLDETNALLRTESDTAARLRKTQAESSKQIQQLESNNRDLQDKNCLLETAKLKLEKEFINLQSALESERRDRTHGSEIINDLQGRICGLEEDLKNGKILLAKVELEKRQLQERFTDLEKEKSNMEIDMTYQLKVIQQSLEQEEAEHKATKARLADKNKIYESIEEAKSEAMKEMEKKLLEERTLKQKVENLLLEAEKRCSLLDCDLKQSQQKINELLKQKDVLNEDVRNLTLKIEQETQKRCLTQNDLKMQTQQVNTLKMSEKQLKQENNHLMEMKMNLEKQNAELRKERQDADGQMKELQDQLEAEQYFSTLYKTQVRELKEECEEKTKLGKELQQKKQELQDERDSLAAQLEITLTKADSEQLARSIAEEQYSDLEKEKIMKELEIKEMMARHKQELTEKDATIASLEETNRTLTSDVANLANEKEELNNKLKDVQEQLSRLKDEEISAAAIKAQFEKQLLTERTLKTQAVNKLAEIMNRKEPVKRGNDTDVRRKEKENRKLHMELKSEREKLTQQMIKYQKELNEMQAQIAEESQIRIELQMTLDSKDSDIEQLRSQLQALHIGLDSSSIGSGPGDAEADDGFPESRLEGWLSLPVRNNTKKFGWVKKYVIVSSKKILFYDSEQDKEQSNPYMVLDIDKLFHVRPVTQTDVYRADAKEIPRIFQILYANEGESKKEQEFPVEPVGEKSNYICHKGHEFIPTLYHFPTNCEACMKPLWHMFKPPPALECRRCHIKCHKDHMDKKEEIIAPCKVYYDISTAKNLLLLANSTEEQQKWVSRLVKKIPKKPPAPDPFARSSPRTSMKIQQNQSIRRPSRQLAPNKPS

| Compound | pIC50 (ROCK2; [8]) | half-life at 1 μM [5] [min] | half-life at 1 μM [2, 9] [min] | further results |
| --- | --- | --- | --- | --- |
| CCOC(=O)COc1cccc(CN2CCCC(Nc3ccc4[nH]ncc4c3)C2)c1 (racemic) [Compound 1.060, reference compound] |  |  |  | pIC50 (ROCK2; comparison table): 8.15; t½ lung S9 [1]: <5 min; half-life at 1 μM [1]: < 5 min; t½ AH ([2]; comparison table, aqueous humor): <5 min; half-life at 1 μM [2, 6]: < 5 min; t½ Plasma [3, 7]: <5 min; half-life at 1 μM [3, 7]: < 5 min |
| CS(=O)(=O)Nc1cccc(CN2CCCC(Nc3ccc4[nH]ncc4c3)C2)c1 (centres unmarked) [Compound 1.091, reference compound] |  |  |  | pIC50 (ROCK2; comparison table): 8.62; pIC50 ([4]; Rattus norvegicus, A7R5, comparison table, MLC phosphorylation, read-out: IC50 MLC-PP): 6.96; half-life at 1 μM [1]: > 240 min; half-life at 1 μM [2, 6]: > 120 min; half-life at 1 μM [3, 7]: > 120 min; degradation in the tested media, including plasma (in words) ([3]; plasma, aqueous humor, lung S9): not degraded at a significant rate |
| O=C(OCC1CC1)c1cccc(CN2CCCC(Nc3cccc4cnccc34)C2)c1 (centres unmarked) [Compound 1] | > 7.00 | 49 |  |  |
| O=C(OCc1ccccc1)c1cccc(CN2CCCC(Nc3cccc4cnccc34)C2)c1 (centres unmarked) [Compound 2] | 6.00 to 7.00 | 53 |  |  |
| O=C(Oc1ccccc1)c1cccc(CN2CCCC(Nc3cccc4cnccc34)C2)c1 (centres unmarked) [Compound 3] | 6.00 to 7.00 | 19 |  |  |
| O=C(OCCO)c1cccc(CN2CCCC(Nc3cccc4cnccc34)C2)c1 (centres unmarked) [Compound 5] | > 7.00 |  |  |  |
| CCSC(=O)c1cccc(CN2CCCC(Nc3cccc4cnccc34)C2)c1 (centres unmarked) [Compound 6] | 6.00 to 7.00 |  |  |  |
| COC(=O)c1cccc(CN2CCCC(Nc3cccc4cnccc34)C2)c1 (centres unmarked) [Compound 8] | 6.00 to 7.00 |  |  |  |
| O=C(Oc1ccccc1)c1cccc(CN2CCCC(Nc3ccc4[nH]ncc4c3)C2)c1 (centres unmarked) [Compound 10] | > 7.00 | < 5 |  |  |
| CCCOC(=O)c1cccc(CN2CCCC(Nc3cccc4cnccc34)C2)c1 (centres unmarked) [Compound 13] | 6.00 to 7.00 |  |  |  |
| O=C(OCC1CCCO1)c1cccc(CN2CCCC(Nc3cccc4cnccc34)C2)c1 (centres unmarked) [Compound 15] | > 7.00 | 5 |  | pEC50 ([4]; Rattus norvegicus): 5.00 to 6.00 |
| O=C(OCc1ccccc1)c1cccc(CN2CCCC(Nc3ccc4[nH]ncc4c3)C2)c1 (centres unmarked) [Compound 18] | > 7.00 | 26 |  |  |
| COC(=O)c1cccc(CN2CCC(Nc3cccc4cnccc34)C2)c1 (centres unmarked) [Compound 20] | > 7.00 |  |  |  |
| CCOC(=O)c1cccc(CN2CCC(Nc3cccc4cnccc34)C2)c1 (centres unmarked) [Compound 21] | 6.00 to 7.00 |  |  |  |
| COC(=O)c1ccc(NC(=O)c2cccc(CN3CCCC(Nc4cccc5cnccc45)C3)c2)cc1 (centres unmarked) [Compound 25] |  |  | > 120 |  |
| O=C1OCC(CCNC(=O)c2cccc(CN3CCCC(Nc4cccc5cnccc45)C3)c2)O1 (centres unmarked) [Compound 27] | > 7.00 | 4 | 111 |  |
| COC(=O)c1cccc(NC(=O)c2cccc(CN3CCCC(Nc4cccc5cnccc45)C3)c2)c1 (centres unmarked) [Compound 30] | > 7.00 |  | > 120 |  |
| COC(=O)Cc1cccc(NC(=O)c2cccc(CN3CCCC(Nc4cccc5cnccc45)C3)c2)c1 (centres unmarked) [Compound 31] |  | < 5 | > 120 |  |
| COC(=O)Cc1cccc(NC(=O)c2cccc(CN3CCC(Nc4cccc5cnccc45)C3)c2)c1 (centres unmarked) [Compound 33] | > 7.00 | < 4 | 59 |  |
| COC(=O)Cc1ccc(NC(=O)c2cccc(CN3CCCC(Nc4cccc5cnccc45)C3)c2)cc1 (centres unmarked) [Compound 34] | > 7.00 |  | > 120 |  |
| COC(=O)c1ccc(NC(=O)c2cccc(CN3CCC(Nc4cccc5cnccc45)C3)c2)cc1 (centres unmarked) [Compound 35] | > 7.00 |  | > 120 |  |
| COC(=O)Cc1ccc(NC(=O)c2cccc(CN3CCC(Nc4cccc5cnccc45)C3)c2)cc1 (centres unmarked) [Compound 36] | > 7.00 | 24 | > 120 |  |
| COC(=O)Cc1ccc(NC(=O)c2cccc(CN3CCCC(Nc4ccc5[nH]ncc5c4)C3)c2)cc1 (centres unmarked) [Compound 40] |  | 40 | > 120 |  |
| COC(=O)Cc1cccc(NC(=O)Cc2cccc(CN3CCCC(Nc4ccc5[nH]ncc5c4)C3)c2)c1 (centres unmarked) [Compound 42] | > 7.00 | < 5 |  |  |
| COC(=O)c1ccc(NC(=O)Cc2cccc(CN3CCCC(Nc4ccc5[nH]ncc5c4)C3)c2)cc1 (centres unmarked) [Compound 43] |  |  | > 120 |  |
| COC(=O)Cc1ccc(NC(=O)Cc2cccc(CN3CCCC(Nc4ccc5[nH]ncc5c4)C3)c2)cc1 (centres unmarked) [Compound 44] | > 7.00 | < 5 |  |  |
| O=C(O)c1cccc(CN2CCCC(Nc3ccc4[nH]ncc4c3)C2)c1 (centres unmarked) [Met1, 3-({3-[(1H-indazol-5-yl)amino]piperidin-1-yl}methyl)benzoic acid] |  |  |  | functional activity in the MLC phosphorylation assay (in words) [4]: functionally inactive compound; also recorded: devoid of functional activity; pEC50 ([4]; Rattus norvegicus): < 5.00 |

The next lines start with results.

| pIC50 (ROCK2; [8]) | half-life at 1 μM [5] [min] | half-life at 1 μM [2, 9] [min] | Compound | further results |
| --- | --- | --- | --- | --- |
| > 7.00 |  |  | CCCOC(=O)Cc1cccc(CN2CCCC(Nc3ccc4[nH]ncc4c3)C2)c1 (centres unmarked) [Compound 4] |  |
| > 7.00 |  |  | COC(=O)c1cccc(CN2CCCC(Nc3ccc4[nH]ncc4c3)C2)c1 (centres unmarked) [Compound 7] | pEC50 ([4]; Rattus norvegicus): 5.00 to 6.00 |
| > 7.00 |  |  | CCCOC(=O)c1cccc(CN2CCCC(Nc3ccc4[nH]ncc4c3)C2)c1 (centres unmarked) [Compound 9] | pEC50 ([4]; Rattus norvegicus): 6.00 to 6.52 |
| > 7.00 |  |  | COC(=O)Cc1cccc(CN2CCCC(Nc3ccc4[nH]ncc4c3)C2)c1 (centres unmarked) [Compound 11] |  |
| > 7.00 |  |  | COCCOC(=O)Cc1cccc(CN2CCCC(Nc3ccc4[nH]ncc4c3)C2)c1 (centres unmarked) [Compound 12] |  |
| > 7.00 |  |  | CCSC(=O)c1cccc(CN2CCCC(Nc3ccc4[nH]ncc4c3)C2)c1 (centres unmarked) [Compound 16] |  |
| > 7.00 | 25 | > 120 | O=C(OCC1CC1)c1cccc(CN2CCCC(Nc3ccc4[nH]ncc4c3)C2)c1 (centres unmarked) [Compound 17] | inhibitory activity against ROCK (in words) (ROCK2; summary of point C1.1): strong inhibitory activity; functional activity in the MLC phosphorylation assay (in words) [4]: display functional activity; pEC50 ([4]; Rattus norvegicus): 6.00 to 6.52; half-life in aqueous humor compared with plasma (in words) ([2]; text summary of point C.2.3): significantly longer half-life in aqueous humor than in plasma; half life in plasma (in words) ([3]; point C.2.1): short half life |
| > 7.00 |  |  | O=C(OCCO)c1cccc(CN2CCCC(Nc3ccc4[nH]ncc4c3)C2)c1 (centres unmarked) [Compound 19] | pEC50 ([4]; Rattus norvegicus): 6.00 to 6.52 |
| > 7.00 |  |  | COC(=O)c1ccc(CN2CCCC(Nc3ccc4[nH]ncc4c3)C2)s1 (centres unmarked) [Compound 23] |  |
| > 7.00 |  |  | COC(=O)c1ccc(CN2CCCC(Nc3ccc4[nH]ncc4c3)C2)[nH]1 (centres unmarked) [Compound 24] |  |
| > 7.00 | < 5 | > 120 | O=C1OCC(CCNC(=O)c2cccc(CN3CCCC(Nc4ccc5[nH]ncc5c4)C3)c2)O1 (centres unmarked) [Compound 29] |  |
| > 7.00 |  | > 120 | COC(=O)c1cccc(NC(=O)c2cccc(CN3CCCC(Nc4ccc5[nH]ncc5c4)C3)c2)c1 (centres unmarked) [Compound 37] |  |
|  |  | > 120 | COC(=O)Cc1cccc(NC(=O)c2cccc(CN3CCCC(Nc4ccc5[nH]ncc5c4)C3)c2)c1 (centres unmarked) [Compound 38] |  |
|  |  | > 120 | COC(=O)c1ccc(NC(=O)c2cccc(CN3CCCC(Nc4ccc5[nH]ncc5c4)C3)c2)cc1 (centres unmarked) [Compound 39] |  |
| > 7.00 | 10 | > 120 | COC(=O)c1cccc(NC(=O)Cc2cccc(CN3CCCC(Nc4ccc5[nH]ncc5c4)C3)c2)c1 (centres unmarked) [Compound 41] |  |
